This note sets out measurements from US20240383901A1, “SUBSTITUTED PYRROLO[2,3-D]PYRIMIDINES, THEIR PREPARATION AND THEIR THERAPEUTIC APPLICATION” (SANOFI, priority 2021, published 2024).

One may read the IC50 as the concentration that gives 50% inhibition. Low readings indicate inhibition by little substance, high ones a need for much substance.

The target in test [1] is T1, full-length LRRK2 wild type (Homo sapiens, UniProt Q5S007).
T1 construct: DYDDDDK tagged full-length LRRK2 wild type is used
Briefly: LRRK2 WT assay (Assay A, Lanthascreen TR-FRET, 500 uM ATP). Type of test: biochemical. The following applies: Assay A (values without *). As for the experimental part: (§1) The potency of compounds was evaluated in vitro using the Lanthascreen® technology (ThermoFisher Scientific).
(§2) In a typical experiment, the reaction assay buffer contains 50 mM Tris pH8.2, 1 mM EGTA, 2.5 mM MgCl2, 0.05% Triton X100, 0.15% BSA and 1 mM DTT. The detection of the assay is performed using 1 nM Terbium labeled anti-phospho-LRRKtide (ThermoFisher Scientific) diluted in a TR-FRET buffer (ThermoFisher Scientific).
(§3) The experimental procedure was performed with Greiner small volume® 384-well. […] The working solution of compounds was prepared in a separate Greiner microplate.
(§4) The kinase reaction was initiated by addition of the ATP/LRRKtide substrate mix diluted in the reaction assay buffer. The reaction mix was incubated for at least 10 minutes at room temperature (initial velocity conditions). Reaction was stopped by addition of Terbium labeled anti-phospho-LRRKtide diluted into the detection buffer supplemented with EDTA (ThermoFisher Scientific). Plates are incubated for at least 30 minutes at room temperature and read on an Envision™ multimode plate reader (PerkinElmer) with LanthaScreen™. The TR-FRET 520:495 nm emission ratio was calculated and used to determine the IC50 value from a dose response curve fit to the 4-parameter logistic equation. The activity with respect to LRRK2 kinase in this test is given by the concentration which inhibits 50% of the LRRK2 activity (or IC50) in nM.

A further test concerns the target T2, full-length LRRK2 G2019S (Homo sapiens, UniProt Q5S007, G2019S).
T2 construct: DYKDDDDK (FLAG)
The test can be described thus: LRRK2-G2019S kinase activity assay (Lanthascreen TR-FRET). It counts as biochemical. The following applies: 1.1 mM ATP. As to the method: as §1, §2, §3, §4

Structures are written as SMILES.

T1 sequence (Q5S007 whole entry): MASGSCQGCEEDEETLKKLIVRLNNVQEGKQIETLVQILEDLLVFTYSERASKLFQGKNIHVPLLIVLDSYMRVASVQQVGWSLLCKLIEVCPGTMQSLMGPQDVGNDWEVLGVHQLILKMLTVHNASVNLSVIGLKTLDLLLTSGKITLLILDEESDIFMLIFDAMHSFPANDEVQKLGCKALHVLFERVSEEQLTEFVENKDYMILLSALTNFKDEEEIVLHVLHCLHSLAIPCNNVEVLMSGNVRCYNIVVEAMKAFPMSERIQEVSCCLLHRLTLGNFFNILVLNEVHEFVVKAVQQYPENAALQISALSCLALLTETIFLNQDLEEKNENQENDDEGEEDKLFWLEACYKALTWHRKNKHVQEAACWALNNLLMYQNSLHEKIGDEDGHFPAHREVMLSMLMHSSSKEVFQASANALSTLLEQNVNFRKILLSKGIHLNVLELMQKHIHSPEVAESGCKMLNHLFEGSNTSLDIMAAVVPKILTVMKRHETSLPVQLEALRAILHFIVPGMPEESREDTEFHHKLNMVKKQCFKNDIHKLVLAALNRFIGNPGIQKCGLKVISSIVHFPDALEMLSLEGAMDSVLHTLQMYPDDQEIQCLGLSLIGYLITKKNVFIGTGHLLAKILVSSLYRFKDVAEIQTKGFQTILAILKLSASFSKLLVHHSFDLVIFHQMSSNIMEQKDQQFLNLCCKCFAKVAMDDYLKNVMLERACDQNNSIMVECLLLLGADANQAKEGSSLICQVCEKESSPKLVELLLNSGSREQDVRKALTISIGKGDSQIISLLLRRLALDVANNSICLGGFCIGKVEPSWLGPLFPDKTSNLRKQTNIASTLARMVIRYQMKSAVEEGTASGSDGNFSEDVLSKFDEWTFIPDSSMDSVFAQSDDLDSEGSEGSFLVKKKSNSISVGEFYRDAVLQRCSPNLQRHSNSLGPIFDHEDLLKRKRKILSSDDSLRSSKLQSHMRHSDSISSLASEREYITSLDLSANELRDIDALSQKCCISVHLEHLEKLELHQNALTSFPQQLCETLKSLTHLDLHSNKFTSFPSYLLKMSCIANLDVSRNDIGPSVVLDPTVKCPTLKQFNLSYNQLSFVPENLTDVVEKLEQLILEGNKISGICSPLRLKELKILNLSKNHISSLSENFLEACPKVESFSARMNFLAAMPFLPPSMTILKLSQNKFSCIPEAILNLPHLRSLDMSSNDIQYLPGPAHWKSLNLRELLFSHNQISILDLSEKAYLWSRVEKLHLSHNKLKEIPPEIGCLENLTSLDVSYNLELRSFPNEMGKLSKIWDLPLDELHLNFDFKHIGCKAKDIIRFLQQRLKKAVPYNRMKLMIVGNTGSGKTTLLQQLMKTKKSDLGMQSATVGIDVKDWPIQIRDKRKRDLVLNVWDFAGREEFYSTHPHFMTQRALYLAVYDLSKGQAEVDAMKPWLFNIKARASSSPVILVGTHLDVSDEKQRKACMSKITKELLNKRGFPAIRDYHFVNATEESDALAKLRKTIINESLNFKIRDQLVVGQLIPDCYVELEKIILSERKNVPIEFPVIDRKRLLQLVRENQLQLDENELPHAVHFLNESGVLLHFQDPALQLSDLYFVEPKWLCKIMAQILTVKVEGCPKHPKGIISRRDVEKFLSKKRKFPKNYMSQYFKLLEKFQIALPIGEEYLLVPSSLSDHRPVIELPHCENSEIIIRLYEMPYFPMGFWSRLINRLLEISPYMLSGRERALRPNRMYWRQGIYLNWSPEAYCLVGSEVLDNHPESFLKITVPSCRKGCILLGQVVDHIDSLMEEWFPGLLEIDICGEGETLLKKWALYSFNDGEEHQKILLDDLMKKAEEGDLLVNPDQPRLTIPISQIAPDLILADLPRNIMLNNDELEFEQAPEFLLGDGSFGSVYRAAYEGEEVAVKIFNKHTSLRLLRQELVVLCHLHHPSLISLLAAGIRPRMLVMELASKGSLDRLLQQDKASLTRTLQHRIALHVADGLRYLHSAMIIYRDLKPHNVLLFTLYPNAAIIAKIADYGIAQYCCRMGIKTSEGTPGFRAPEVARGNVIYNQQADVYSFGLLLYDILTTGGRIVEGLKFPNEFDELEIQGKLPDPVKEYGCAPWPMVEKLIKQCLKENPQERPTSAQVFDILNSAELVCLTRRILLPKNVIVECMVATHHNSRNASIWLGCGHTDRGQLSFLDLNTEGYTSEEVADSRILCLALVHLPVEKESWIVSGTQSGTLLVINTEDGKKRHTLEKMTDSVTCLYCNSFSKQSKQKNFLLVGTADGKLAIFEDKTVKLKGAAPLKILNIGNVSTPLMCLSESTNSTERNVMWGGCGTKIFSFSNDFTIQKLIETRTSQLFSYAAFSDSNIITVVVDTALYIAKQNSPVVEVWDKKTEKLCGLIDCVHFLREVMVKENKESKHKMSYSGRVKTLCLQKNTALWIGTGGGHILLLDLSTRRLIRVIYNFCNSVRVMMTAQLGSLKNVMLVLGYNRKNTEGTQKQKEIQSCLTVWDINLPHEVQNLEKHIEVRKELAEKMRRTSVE
T2 sequence (Q5S007 whole entry G2019S): as the sequence (Q5S007 whole entry) above, with G2019S counted along it

As for `COCCn1cc(Nc2ncc3cc(C#N)n(C4CCOCC4)c3n2)c(OC2CC2)n1` [Example 122, 2-((3-Cyclopropoxy-1-(2-methoxyethyl)-1 H-pyrazol-4-yl)amino)-7-(tetrahydro-2H-pyran-4-yl)-7H-pyrrolo[2,3-d]pyrimidine-6-carbonitrile], the IC50 in test [1] is 153 nM; at full-length LRRK2 G2019S, 222 nM.
For the compound `[2H]C([2H])([2H])n1cc(Nc2ncc3cc(C#N)n([C@@H](C)COC)c3n2)c(OC2COC2(C)C)n1` (single isomer, unassigned) [Example 99], the IC50 in test [1] stood at 34 nM; against full-length LRRK2 G2019S, 36 nM.
As for `[2H]C([2H])([2H])n1cc(Nc2ncc3cc(C#N)n([C@@H](C)COC)c3n2)c(OC2CC(O)C2(C)C)n1` (single isomer, unassigned) [Example 134], the IC50 in test [1] came to 3 nM; against full-length LRRK2 G2019S it was 5 nM.
With `CC(C)Oc1nn(C2COC2)cc1Nc1ncc2cc(C#N)n([C@H]3COC[C@@H]3C)c2n1` [Example 31, 2-((3-Isopropoxy-1-(oxetan-3-yl)-1H-pyrazol-4-yl)amino)-7-((3R,4R)-4-methyltetrahydrofuran-3-yl)-7H-pyrrolo[2,3-d]pyrimidine-6-carbonitrile], the IC50 (in test [1]; against full-length LRRK2 G2019S) was 2 nM throughout.
In the case of `CC(C)Oc1nn(C)cc1Nc1ncc2cc(C#N)n([C@@H]3COC[C@@H]3C)c2n1` (racemic) [Example 47, 2-((3-isopropoxy-1-methyl-1 H-pyrazol-4-yl)amino)-7-((cis)-4-methyltetrahydrofuran-3-yl)-7H-pyrrolo[2,3-d]pyrimidine-6-carbonitrile], the IC50 in test [1] stood at 36 nM; at full-length LRRK2 G2019S it was 31 nM.
For `COCC(C)n1c(C#N)cc2cnc(Nc3cn(C4CCC(C)(O)CC4)nc3OC(C)C)nc21` [Example 104, cis-2-((1-(4-hydroxy-4-methylcyclohexyl)-3-isopropoxy-1H-pyrazol-4-yl)amino)-7-((S)-1-methoxypropan-2-yl)-7H-pyrrolo[2,3-d]pyrimidine-6-carbonitrile], the IC50 in test [1] is 44 nM; on full-length LRRK2 G2019S, 42 nM.
In the case of `C[C@@H]1COC[C@H]1n1c(C#N)cc2cnc(Nc3cn(C)nc3OC3COC3)nc21` [Example 44, 2-((1-Methyl-3-(oxetan-3-yloxy)-1 H-pyrazol-4-yl)amino)-7-((3S,4S)-4-methyltetrahydrofuran-3-yl)-7H-pyrrolo[2,3-d]pyrimidine-6-carbonitrile], the IC50 in test [1] was 196 nM; on full-length LRRK2 G2019S, 191 nM.
With `[2H]C([2H])([2H])n1cc(Nc2ncc3cc(C#N)n([C@@H](C)COC)c3n2)c(OC2CC(O)C2(C)C)n1` (stereo partly drawn) [Example 108, 2-((3-(3-hydroxy-2,2-dimethylcyclobutoxy)-1-(methyl-d3)-1H-pyrazol-4-yl)amino)-7-((S)-1-methoxypropan-2-yl)-7H-pyrrolo[2,3-d]pyrimidine-6-carbonitrile], the IC50 (in test [1]; against full-length LRRK2 G2019S) was 10 nM in each case.
On to `[2H]C([2H])([2H])n1cc(Nc2ncc3cc(C#N)n([C@H]4COC[C@@H]4C)c3n2)c(OC2CC2)n1` [Example 28, 2-((3-Cyclopropoxy-1-(methyl-d3)-1H-pyrazol-4-yl)amino)-7-((3R,4R)-4-methyltetrahydrofuran-3-yl)-7H-pyrrolo[2,3-d]pyrimidine-6-carbonitrile], for which the IC50 (in test [1]; against full-length LRRK2 G2019S) was 3 nM in each case.
With `[2H]C([2H])([2H])n1cc(Nc2ncc3cc(C#N)n([C@@H](C)COC)c3n2)c(OC2COC2(C)C)n1` (single isomer, unassigned) [Example 100], the IC50 stood at 40 nM in test [1] and 39 nM against full-length LRRK2 G2019S.
Take `CO[C@H]1COC[C@H]1n1c(C#N)cc2cnc(Nc3cn(C(C)C#N)nc3OC(C)C)nc21` (single isomer, unassigned) [Example 56]: the IC50 in test [1] amounted to 7 nM; on full-length LRRK2 G2019S, 4 nM.
With `COCC(C)n1cc(Nc2ncc3cc(C#N)n([C@@H](C)COC)c3n2)c(OC2COC2)n1` (single isomer, unassigned) [Example 130], the IC50 in test [1] was determined as 61 nM; against full-length LRRK2 G2019S it was 57 nM.
`[2H]C([2H])([2H])n1cc(Nc2ncc3cc(C#N)n([C@H]4COC[C@@H]4C)c3n2)c(OC(C)C)n1` [Example 42, 2-((3-Isopropoxy-1-(methyl-d3)-1H-pyrazol-4-yl)amino)-7-((3R,4R)-4-methyltetrahydrofuran-3-yl)-7H-pyrrolo[2,3-d]pyrimidine-6-carbonitrile]: the IC50 worked out at 1 nM in test [1] and 2 nM on full-length LRRK2 G2019S.
For `[2H]C([2H])([2H])n1cc(Nc2ncc3cc(C#N)n([C@@H](C)COC)c3n2)c(OC2CCOC2)n1` (single isomer, unassigned) [Example 101], in that order: 40 nM and 34 nM.
As to `C[C@H]1COC[C@@H]1n1c(C#N)cc2cnc(Nc3cn(CS(C)(=O)=O)nc3OC3COC3)nc21` [Example 14, 2-[[1-(Methylsulfonylmethyl)-3-(oxetan-3-yloxy)pyrazol-4-yl]amino]-7-[(3R,4R)-4-methyltetrahydrofuran-3-yl]pyrrolo[2,3-d]pyrimidine-6-carbonitrile], the IC50 (in test [1]; against full-length LRRK2 G2019S) was 2 nM in each case.
Turning to `CC(C)Oc1nn(CC(F)(F)F)cc1Nc1ncc2cc(C#N)n([C@H]3COC[C@@H]3C)c2n1` [Example 25, 2-((3-Isopropoxy-1-(2,2,2-trifluoroethyl)-1H-pyrazol-4-yl)amino)-7-((3R,4R)-4-methyltetrahydrofuran-3-yl)-7H-pyrrolo[2,3-d]pyrimidine-6-carbonitrile], the IC50 (in test [1]; against full-length LRRK2 G2019S) was 1 nM in each case.
In the case of `COC[C@H](C)n1c(C#N)cc2cnc(Nc3cn(CCO)nc3OC3CCOC3)nc21` (mixture of isomers) [Example 151, 2-((1-(2-hydroxyethyl)-3-((tetrahydrofuran-3-yl)oxy)-1 H-pyrazol-4-yl)amino)-7-((S)-1-methoxypropan-2-yl)-7H-pyrrolo[2,3-d]pyrimidine-6-carbonitrile], the IC50 was 31 nM in test [1] and 27 nM at full-length LRRK2 G2019S.
In the case of `COCn1cc(Nc2ncc3cc(C#N)n([C@H]4COC[C@@H]4C)c3n2)c(OC2CC2)n1` [Example 35, 2-((3-Cyclopropoxy-1-(methoxymethyl)-1H-pyrazol-4-yl)amino)-7-((3R,4R)-4-methyltetrahydrofuran-3-yl)-7H-pyrrolo[2,3-d]pyrimidine-6-carbonitrile], the IC50 in test [1] is 4 nM; against full-length LRRK2 G2019S, 6 nM.
For `COC[C@H](C)n1c(C#N)cc2cnc(Nc3cn(CCO)nc3OC3COC3)nc21` [Example 139, (S)-2-((1-(2-hydroxyethyl)-3-(oxetan-3-yloxy)-1 H-pyrazol-4-yl)amino)-7-(1-methoxypropan-2-yl)-7H-pyrrolo[2,3-d]pyrimidine-6-carbonitrile], the concentration for half-maximal inhibition (IC50) in test [1] came to 22 nM; on full-length LRRK2 G2019S it was 20 nM.
On to `C[C@@H]1COCC[C@H]1n1c(C#N)cc2cnc(Nc3cn(CCO)nc3OC3COC3)nc21` (single isomer, unassigned) [Example 161, 2-((1-(2-hydroxyethyl)-3-(oxetan-3-yloxy)-1 H-pyrazol-4-yl)amino)-7-(trans-3-methyltetrahydro-2H-pyran-4-yl)-7H-pyrrolo[2,3-d]pyrimidine-6-carbonitrile], for which the IC50 is 7 nM in test [1] and 14 nM against full-length LRRK2 G2019S.
For `CC(C)Oc1nn(C)cc1Nc1ncc2cc(C#N)n([C@@H]3CO[C@H]3C)c2n1` (single isomer, unassigned) [Example 79, 7-[(trans)-2-methyloxetan-3-yl]-2-[(1-methyl-3-propan-2-yloxypyrazol-4-yl)amino]pyrrolo[2,3-d]pyrimidine-6-carbonitrile], in that order: 9 nM and 6 nM.
Regarding `[2H]C([2H])([2H])n1cc(Nc2ncc3cc(C#N)n([C@@H](C)COC)c3n2)c(O[C@@H]2COC[C@H]2O)n1` (single isomer, unassigned) [Example 116], the results for the IC50 (in test [1]; at full-length LRRK2 G2019S) were 43 nM and 50 nM, respectively.
Take `C[C@@H]1OC[C@H]1n1c(C#N)cc2cnc(Nc3cn(C)nc3OC3COC3)nc21` (single isomer, unassigned) [Example 77, 7-[(trans)-2-methyloxetan-3-yl]-2-[[1-methyl-3-(oxetan-3-yloxy)pyrazol-4-yl]amino]pyrrolo[2,3-d]pyrimidine-6-carbonitrile]: the IC50 was found to be 34 nM in test [1] and 21 nM against full-length LRRK2 G2019S.
Turning to `CCn1cc(Nc2ncc3cc(C#N)n([C@H]4COC[C@@H]4C)c3n2)c(OC2COC2)n1` [Example 38, 2-((1-Ethyl-3-(oxetan-3-yloxy)-1H-pyrazol-4-yl)amino)-7-((3R,4R)-4-methyltetrahydrofuran-3-yl)-7H-pyrrolo[2,3-d]pyrimidine-6-carbonitrile], the figures for the IC50 (in test [1]; at full-length LRRK2 G2019S) were 6 nM and 5 nM, respectively.
In the same order, the values of `C[C@H]1COC[C@@H]1n1c(C#N)cc2cnc(Nc3cn(C)nc3OC3COC3)nc21` [Example 8, 2-[[1-methyl-3-(oxetan-3-yloxy)pyrazol-4-yl]amino]-7-[(3R,4R)-4-methyltetrahydrofuran-3-yl]pyrrolo[2,3-d]pyrimidine-6-carbonitrile] are 6 nM and 4 nM.
